Publication PMC7697893, “Novel 1-Amidino-4-Phenylpiperazines as Potent Agonists at Human TAAR1 Receptor: Rational Design, Synthesis, Biological Evaluation and Molecular Docking Studies” (Pharmaceuticals, 2020)
Counter-ions that a name gives are not always drawn. Like-named read-outs stand apart in the source and are kept apart here.

Legend:
hTAAR1 [1] = target: T1, hTAAR1 (Homo sapiens, UniProt Q96RJ0)
T1 construct: expressed in transfected cells; host or cells: HEK-293T (ATCC)
T1 sequence (Q96RJ0 1-339): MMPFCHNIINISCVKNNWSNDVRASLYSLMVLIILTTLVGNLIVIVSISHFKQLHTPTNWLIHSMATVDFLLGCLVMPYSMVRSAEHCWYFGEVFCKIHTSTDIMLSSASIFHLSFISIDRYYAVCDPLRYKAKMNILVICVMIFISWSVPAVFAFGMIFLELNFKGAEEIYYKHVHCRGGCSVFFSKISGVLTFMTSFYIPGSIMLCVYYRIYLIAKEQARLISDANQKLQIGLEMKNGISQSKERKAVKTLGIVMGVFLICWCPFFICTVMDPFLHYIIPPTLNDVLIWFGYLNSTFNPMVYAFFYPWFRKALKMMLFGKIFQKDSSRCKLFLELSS

mTAAR1 = system: mTAAR1; parameters: method as in PMID 27823885, PMID 29407948; details: Figure 2, biguanides SET1 and SET2; cited from earlier work
[2] = parameters: method as in PMID 5719030; details: potentiating pressor effect of tyramine and NE; cited from earlier work
[3] = parameters: method as in PMID 5169226; details: rats, intraperitoneal, 100 mg/kg; cited from earlier work
hTAAR1 [4] = target: T1, hTAAR1; assay: Functional activity at hTAAR1, cAMP BRET biosensor in HEK-293T cells; assay type: cell-based; details: for Emax at 10 µM: HEK-293T, read-out: hTAAR1 Activity
Procedure: The activity of the compounds was measured using human embryonic kidney 293 (HEK-293T) cells co-transfected with plasmids encoding hTAAR1 and a cAMP Bioluminescence Resonance Energy Transfer (BRET) biosensor, or empty vector as a control. TYR was used as a positive control for agonism. Firstly, all the compounds were tested at 10 μM either for agonistic or antagonistic activity.
BRET screening was described in detail elsewhere. HEK-293T (ATCC) cells were transiently сo-transfected with plasmids encoding hTAAR1 and a cAMP BRET biosensor using Lipofectamine® (ThermoFisher) reagent, and then plated in 96-well plates (Corning) at […] per well. On the following day, culture medium was removed and 70 μL of phosphate-buffered saline containing calcium and magnesium was added to each well, followed by the addition of 10 μL […] 3-isobutyl-1-methylxanthine solution (Sigma), and 10 μL 50 μM coelenterazine-h solution (Promega). All tested compounds were dissolved in DMSO to yield 10 mM stock solutions. After 10 min incubation, either 10 μL of vehicle or 10× of the concentrated solution of compound to be tested (10 μM final concentration) was added. Readings were collected using a Mithras LB943 multimodal plate reader (Berthold Technologies). The BRET signal is determined by calculating the ratio of the light emitted at 505 to 555 nm to the light emitted at 465 to 505 nm.
Curves were fitted by applying non-linear regression models on GraphPad Prism 6 (GraphPad Software).

[5] = Cell cytotoxicity assay (MTT) on Vero-76 cells; assay type: cell-based, Cercopithecus Aethiops; details: Cercopithecus aethiops (African green monkey), Vero-76 cells; MTT method, 48–96 h; CC50±SEM
Procedure: (§1) Vero-76 cells (ATCC CRL 1587 Cercopithecus Aethiops) were seeded at an initial density of 4 × 10^5 cells/mL in 24-well plates, in culture medium (Dulbecco’s Modified Eagle Medium (D-MEM) with L-glutamine, supplemented with fetal bovine serum (FBS), 0.025 g/L kanamycin). Cell cultures were then incubated at 37 °C in a humidified, 5% CO2 atmosphere in the absence or presence of serial dilutions of test compounds. Cell viability was determined after 48–96 h at 37 °C by the MTT staining method. The results are expressed as CC50, which is the concentration of compound necessary to inhibit cell growth by 50%. Each CC50 value is the mean and standard deviation of at least three separate experiments performed in duplicate.

Vero-76 cells = assay: Cell cytotoxicity assay (MTT) on Vero-76 cells; assay type: cell-based, Cercopithecus Aethiops; details: ratio of Vero-76 CC50 to hTAAR1 EC50
Procedure: as §1

[6] = cited from earlier work
human hepatocyte = details: cited from earlier work
[7] = Figure 2, biguanides SET1 and SET2; cited from earlier work
[8] = Figure 2, biguanides SET1 and SET2; read-out: hTAAR1 EC50; cited from earlier work
[9] = dose–response 10 nM to 10 μM, means of 4 experiments, errors within 10%, read-out: hTAAR1 EC50
[10] = hTAAR1, amidines of this paper, from EC50, read-out: pEC50 (converted)
[11] = as compared with 1 µM TYR (full agonism), compounds tested at 10 μM

## N=C(N)N1CCN(c2cccc(C(F)(F)F)c2)CC1 (as salt: hydrochloride) [Compound 9, 4-[(3-Trifluoromethyl)phenyl]piperazine-1-carboximidamide hydrochloride]
other
  melting point: 170 to 173 °C

## CCc1[nH]nc(C(=O)Nc2ccc([C@H]3CNCCO3)cc2)c1C [(4-Aminophenyl)morpholino derivative]
hTAAR1 [1]; partial agonist; cited from earlier work
  hTAAR1 efficacy: 42%

## NC(N)=NC(N)=Nc1ccccc1Cl [BIG2]
mTAAR1
  EC50: 0.41 µM

## NC(N)=NC(N)=Nc1ccc(Cl)cc1 [BIG4]
mTAAR1
  EC50: 2.1 µM
hTAAR1 [1]; [7]
  hTAAR1 EC50: inactive
hTAAR1 [1]; read-out: hTAAR1 EC50; Figure 2, biguanides SET1 and SET2; cited from earlier work
  EC50: > 10 µM

## Cc1ccc(NC(=N)N=C(N)N)cc1 [BIG8]
mTAAR1
  EC50: 1.7 µM
hTAAR1 [1]; [7]
  hTAAR1 EC50: inactive
hTAAR1 [1]; [8]
  EC50: > 10 µM

## COc1ccc(N=C(N)N=C(N)N)cc1 [BIG9]
mTAAR1
  mTAAR1 EC50: inactive
hTAAR1 [1]; [7]
  hTAAR1 EC50: inactive

## N=C(N)NC(=N)NCc1ccccc1 [BIG10, 1-benzylbiguanide]
mTAAR1
  EC50: 0.78 µM
hTAAR1 [1]; [8]
  EC50: > 10 µM

## NC(N)=NC(N)=NCc1cccc(Cl)c1 [BIG12]
mTAAR1
  EC50: 0.097 µM

## NC(N)=NC(N)=NCc1ccc(Cl)c(Cl)c1 [BIG14]
mTAAR1
  EC50: 0.036 µM

## COc1ccc(CN=C(N)N=C(N)N)cc1 [BIG17]
mTAAR1
  mTAAR1 EC50: inactive
hTAAR1 [1]; [7]
  hTAAR1 EC50: inactive

## Cl.N=C(N)N1CCN(c2ccccc2)CC1 [Compound 1, 4-Phenylpiperazine-1-carboximidamide hydrochloride]
[2]
  sympathomimetic effect: a rise in the blood pressure
[3]
  increase of the concentration of NE in the brain: about 34.5%
  increase of the concentration of NE in the heart: ~42.7%
other
  melting point: 214 to 217 °C
hTAAR1 [4]
  Emax at 10 µM: 71%
hTAAR1 [4]; [9]
  EC50: 0.37 µM
[5]
  CC50: 84 ± 5 µM
Vero-76 cells
  Therapeutic index (CC50/EC50): 227

## N=C(N)N=C(N)N1CCN(c2ccccc2)CC1 [Compound 1a, 1-phenyl-4-biguanylpiperazine]
mTAAR1
  EC50: 2.38 µM

## Cc1ccccc1N1CCN(C(=N)N)CC1.Cl [Compound 2, 4-(o-Tolyl)piperazine-1-carboximidamide hydrochloride]
other
  melting point: 159 to 162 °C
hTAAR1 [4]
  Emax at 10 µM: 100%
hTAAR1 [4]; [10]
  EC50: 0.0302 µM
[5]
  CC50: 80 ± 5 µM
Vero-76 cells
  Therapeutic index (CC50/EC50): 2667

## Cl.N=C(N)N1CCN(c2ccccc2Cl)CC1 [Compound 3, 4-(2-Chlorophenyl)piperazine-1-carboximidamide hydrochloride]
hTAAR1 [4]
  Emax at 10 µM: 90%
hTAAR1 [4]; [9]
  EC50: 0.16 µM
[5]
  CC50: > 100 µM
Vero-76 cells
  Therapeutic index (CC50/EC50): 625

## N=C(N)N=C(N)N1CCN(c2ccccc2Cl)CC1 [Compound 3a]
mTAAR1
  EC50: 2.66 µM

## Cl.N=C(N)N1CCN(c2cccc(Cl)c2)CC1 [Compound 4, 4-(3-Chlorophenyl)piperazine-1-carboximidamide hydrochloride]
[2]
  sympathomimetic effect: a rise in the blood pressure
hTAAR1 [4]
  Emax at 10 µM: 35%
hTAAR1 [4]; [9]
  EC50: > 2 µM
[5]
  CC50: 90 ± 3 µM
Vero-76 cells
  Therapeutic index (CC50/EC50): 45

## Cl.N=C(N)N1CCN(c2ccc(Cl)cc2)CC1 [Compound 5, 4-(4-Chlorophenyl)piperazine-1-carboximidamide hydrochloride]
[2]
  sympathomimetic effect: a rise in the blood pressure
hTAAR1 [4]; [11]
  hTAAR1 Activity: inactive
[5]
  CC50: 95 ± 3 µM

## COc1ccccc1N1CCN(C(=N)N)CC1.Cl [Compound 6, 4-(2-Methoxyphenyl)piperazine-1-carboximidamide hydrochloride]
hTAAR1 [4]
  Emax at 10 µM: 64%
hTAAR1 [4]; [9]
  EC50: 0.093 µM
[5]
  CC50: 83 ± 5 µM
Vero-76 cells
  Therapeutic index (CC50/EC50): 892

## COc1cccc(N2CCN(C(=N)N)CC2)c1.Cl [Compound 7, 4-(3-Methoxyphenyl)piperazine-1-carboximidamide hydrochloride]
hTAAR1 [4]
  Emax at 10 µM: 32%
hTAAR1 [4]; [9]
  EC50: 0.244 µM
[5]
  CC50: 87 ± 4 µM
Vero-76 cells
  Therapeutic index (CC50/EC50): 357

## COc1ccc(N2CCN(C(=N)N)CC2)cc1.Cl [Compound 8, 4-(4-Methoxyphenyl)piperazine-1-carboximidamide hydrochloride]
hTAAR1 [4]; [11]
  hTAAR1 Activity: inactive
[5]
  CC50: 88 ± 2 µM

## COc1ccc(N2CCN(C(N)=NC(=N)N)CC2)cc1 [Compound 8a]
mTAAR1
  mTAAR1 EC50: inactive

## N=C(N)N1CCN(c2cccc(C(F)(F)F)c2)CC1 [Compound 9, 4-[(3-Trifluoromethyl)phenyl]piperazine-1-carboximidamide hydrochloride]
hTAAR1 [4]; [11]
  Emax at 10 µM: 80%
hTAAR1 [4]; [9]
  EC50: 0.064 µM
[5]
  CC50: > 100 µM
Vero-76 cells
  Therapeutic index (CC50/EC50): 1562

## Cl.N=C(N)N1CCN(c2ccccn2)CC1 [Compound 10, 4-(Pyridin-2-yl)Piperazine-1-Carboximidamide Hydrochloride]
other
  melting point: 205 to 208 °C
hTAAR1 [4]
  Emax at 10 µM: 30%
hTAAR1 [4]; [9]
  EC50: > 2 µM
[5]
  CC50: 74 ± 5 µM
Vero-76 cells
  Therapeutic index (CC50/EC50): 37

## N=C(N)N=C(N)N1CCN(c2ncccn2)CC1 [Compound 10a]
mTAAR1
  EC50: 9 µM
hTAAR1 [1]; [7]
  hTAAR1 EC50: inactive

## Cl.N=C(N)N1CCN(c2ncccn2)CC1 [Compound 11, 4-(Pyrimidin-2-yl)piperazine-1-carboximidamide hydrochloride]
hTAAR1 [4]; [11]
  hTAAR1 Activity: inactive
[5]
  CC50: 64 ± 2 µM

## Cl.N#Cc1ccccc1N1CCN(C(=N)N)CC1 [Compound 12, 4-(2-Cyanophenyl)piperazine-1-carboximidamide hydrochloride]
other
  melting point: 236 to 238 °C
hTAAR1 [4]; [11]
  hTAAR1 Activity: inactive
[5]
  CC50: 78 ± 2 µM

## Cl.N=C(N)N1CCN(c2ccccc2F)CC1 [Compound 13, 4-(2-Fluorophenyl)piperazine-1-carboximidamide hydrochloride]
other
  melting point: 145 to 148 °C
hTAAR1 [4]; [11]
  hTAAR1 Activity: inactive
[5]
  CC50: 87 ± 5 µM

## Cl.N=C(N)N1CCN(c2ccc(F)cc2)CC1 [Compound 14, 4-(4-Fluorophenyl)piperazine-1-carboximidamide hydrochloride]
hTAAR1 [4]; [11]
  hTAAR1 Activity: inactive
[5]
  CC50: 94 ± 6 µM

## Cl.N=C(N)N1CCN(c2cccc(Cl)c2Cl)CC1 [Compound 15, 4-(2,3-Dichlorophenyl)piperazine-1-carboximidamide hydrochloride]
hTAAR1 [4]
  Emax at 10 µM: 81%
hTAAR1 [4]; [10]
  EC50: 0.02 µM
[5]
  CC50: 82 ± 5 µM
Vero-76 cells
  Therapeutic index (CC50/EC50): 4100

## Cl.N=C(N)N1CCN(c2ccc(Cl)c(Cl)c2)CC1 [Compound 16, 4-(3,4-Dichlorophenyl)piperazine-1-carboximidamide hydrochloride]
other
  melting point: 235 to 237 °C
hTAAR1 [4]
  Emax at 10 µM: 49%
hTAAR1 [4]; [9]
  EC50: 0.071 µM
[5]
  CC50: 89 ± 4 µM
Vero-76 cells
  Therapeutic index (CC50/EC50): 1254

## NC1=N[C@H](c2ccc(Br)cc2)CO1 [Compound 27b]
hTAAR1 [1]; 2-aminooxazolines reported by Roche, Table S1; cited from earlier work
  pEC50: 5.00 M

## Cc1c(F)cccc1[C@H]1COC(N)=N1 [RO5263397]
[6]
  AMES/MNT test: negative
Human hepatocyte
  human hepatocyte clearance: acceptable

## NCCc1ccc(O)cc1 [TYR, tyramine, reference compound]
hTAAR1 [4]; [11]
  hTAAR1 Activity: 100%
hTAAR1 [4]; [9]
  EC50: 0.066 µM

## NCCc1ccccc1 [β-PEA, β-phenylethylamine]
hTAAR1 [1]; hTAAR1; endogenous agonist, no reference given; cited from earlier work
  pEC50: 6.70 M
